Legend:
[1] = molecular target: T1, human TLR8 (Homo sapiens, UniProt Q9NR97); experiment: HEK-Blue human TLR8 cells, NF-κB SEAP reporter assay; format: cell-based; conditions: stimulation for 20 hours, SEAP reporter read at 640 nm
T1 construct: host or cells: HEK-Blue human TLR8 cells (HEK293-derived; own knowledge: stably transfected with the human TLR8 gene)
T1 sequence (Q9NR97 27-1041): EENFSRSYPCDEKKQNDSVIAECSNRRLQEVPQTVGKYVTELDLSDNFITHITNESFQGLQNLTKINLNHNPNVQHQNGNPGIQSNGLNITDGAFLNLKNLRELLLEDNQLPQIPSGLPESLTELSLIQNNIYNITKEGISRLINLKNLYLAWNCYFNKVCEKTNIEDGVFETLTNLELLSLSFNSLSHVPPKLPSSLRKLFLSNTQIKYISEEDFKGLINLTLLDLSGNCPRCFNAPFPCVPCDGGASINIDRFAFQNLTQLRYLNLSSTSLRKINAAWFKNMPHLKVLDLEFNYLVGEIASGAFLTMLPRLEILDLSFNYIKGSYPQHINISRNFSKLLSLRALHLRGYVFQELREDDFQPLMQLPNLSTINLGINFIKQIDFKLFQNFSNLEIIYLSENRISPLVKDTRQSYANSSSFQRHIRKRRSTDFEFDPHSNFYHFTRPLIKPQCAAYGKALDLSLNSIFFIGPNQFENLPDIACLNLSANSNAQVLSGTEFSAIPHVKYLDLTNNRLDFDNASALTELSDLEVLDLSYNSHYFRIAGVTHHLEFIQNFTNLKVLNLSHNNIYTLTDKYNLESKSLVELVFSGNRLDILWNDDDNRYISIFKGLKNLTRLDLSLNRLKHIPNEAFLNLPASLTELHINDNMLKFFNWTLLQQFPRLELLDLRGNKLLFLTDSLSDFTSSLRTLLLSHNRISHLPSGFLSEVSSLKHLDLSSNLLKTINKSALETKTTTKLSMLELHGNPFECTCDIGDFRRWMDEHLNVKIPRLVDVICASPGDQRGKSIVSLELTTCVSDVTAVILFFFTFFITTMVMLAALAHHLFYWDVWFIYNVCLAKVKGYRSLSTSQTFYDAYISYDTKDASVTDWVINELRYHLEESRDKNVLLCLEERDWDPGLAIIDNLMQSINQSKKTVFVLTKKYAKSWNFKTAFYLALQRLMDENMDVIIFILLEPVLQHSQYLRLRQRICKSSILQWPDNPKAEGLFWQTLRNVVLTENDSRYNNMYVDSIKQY
Source text: (§1) For TLR8 and TLR7 activity testing, HEK-Blue human TLR8 or TLR7 cells (Invivogen, San Diego, Calif., USA) are used, respectively. These cells are designed for studying the stimulation of human TLR8 or TLR7 by monitoring the activation of NF-κB. A SEAP (secreted embryonic alkaline phosphatase) reporter gene is placed under the control of the IFN-b minimal promoter fused to five NF-κB and AP-1-binding sites. Therefore the reporter expression is regulated by the NF-κB promoter upon stimulation of human TLR8 or TLR7 for 20 hours. The cell culture supernatant SEAP reporter activity was determined using Quanti Blue kit (Invivogen, San Diego, Ca, USA) at a wavelength of 640 nm, a detection medium that turns purple/blue in the presence of alkaline phosphatase.

[2] = molecular target: T2, human TLR7 (Homo sapiens, UniProt Q9NYK1); experiment: HEK-Blue human TLR7 cells, NF-κB SEAP reporter assay; format: cell-based; conditions: stimulation for 20 hours, SEAP reporter read at 640 nm
T2 construct: host or cells: HEK-Blue human TLR7 cells (HEK293-derived; own knowledge: stably transfected with the human TLR7 gene)
T2 sequence (Q9NYK1 27-1049): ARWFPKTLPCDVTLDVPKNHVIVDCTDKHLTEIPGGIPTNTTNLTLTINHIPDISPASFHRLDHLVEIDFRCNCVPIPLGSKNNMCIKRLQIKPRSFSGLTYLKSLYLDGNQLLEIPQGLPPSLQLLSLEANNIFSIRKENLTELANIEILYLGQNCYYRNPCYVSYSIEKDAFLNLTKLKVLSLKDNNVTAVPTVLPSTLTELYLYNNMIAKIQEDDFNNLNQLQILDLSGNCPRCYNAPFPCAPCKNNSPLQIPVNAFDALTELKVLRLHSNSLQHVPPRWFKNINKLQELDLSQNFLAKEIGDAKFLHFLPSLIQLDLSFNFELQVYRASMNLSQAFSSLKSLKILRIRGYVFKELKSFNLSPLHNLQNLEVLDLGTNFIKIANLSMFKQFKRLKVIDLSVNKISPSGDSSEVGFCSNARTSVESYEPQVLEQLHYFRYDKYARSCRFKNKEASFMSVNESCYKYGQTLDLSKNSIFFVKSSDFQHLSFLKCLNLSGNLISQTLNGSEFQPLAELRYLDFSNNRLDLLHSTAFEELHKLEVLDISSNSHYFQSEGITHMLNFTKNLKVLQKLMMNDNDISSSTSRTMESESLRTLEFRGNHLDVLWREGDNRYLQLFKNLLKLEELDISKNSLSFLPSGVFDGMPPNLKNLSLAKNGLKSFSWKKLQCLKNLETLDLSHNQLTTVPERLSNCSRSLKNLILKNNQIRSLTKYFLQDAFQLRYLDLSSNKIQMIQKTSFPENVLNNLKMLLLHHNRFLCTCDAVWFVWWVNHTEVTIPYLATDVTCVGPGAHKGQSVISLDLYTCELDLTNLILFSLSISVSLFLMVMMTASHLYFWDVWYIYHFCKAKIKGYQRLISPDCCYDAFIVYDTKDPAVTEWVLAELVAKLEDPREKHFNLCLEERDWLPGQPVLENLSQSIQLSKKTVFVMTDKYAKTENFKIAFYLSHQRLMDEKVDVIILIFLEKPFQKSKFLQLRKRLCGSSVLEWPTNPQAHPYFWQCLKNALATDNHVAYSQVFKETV
Source text: as §1

Row | EC50 [1] | EC50 [2] | Compound
1 | 25 nM | 32000 nM | CCCN(CCC)C(=O)C1=Cc2ccc(-c3ccc(S(=N)(=O)CC)cc3)cc2N=C(N)C1 (stereo not shown) [Example 9, 2-Amino-8-[4-(ethylsulfonimidoyl)phenyl]-N,N-dipropyl-3H-1-benzazepine-4-carboxamide]
2 | 11 nM | 55000 nM | CCCN(CCC)C(=O)C1=Cc2ccc(-c3cccc(S(C)(=O)=NCCOCCO)c3)cc2N=C(N)C1 (stereo not shown) [Example 3, 2-Amino-8-[3-[N-[2-(2-hydroxyethoxy)ethyl]-S-methyl-sulfonimidoyl]phenyl]-N,N-dipropyl-3H-1-benzazepine-4-carboxamide]
3 | 13 nM | 15400 nM | CCCN(CCC)C(=O)C1=Cc2ccc(-c3cccc(S(C)(=N)=O)c3)cc2N=C(N)C1 (stereo not shown) [Example 7, 22-Amino-8-[3-(methylsulfonimidoyl)phenyl]-N,N-dipropyl-3H-1-benzazepine-4-carboxamide]
4 | 8 nM | 16000 nM | CCCN(CCC)C(=O)C1=Cc2ccc(-c3cccc([S+]([O-])CC)c3)cc2N=C(N)C1 (stereo not shown) [Example 10, 2-Amino-8-(3-ethylsulfinylphenyl)-N,N-dipropyl-3H-1-benzazepine-4-carboxamide]
5 | 25 nM | 25000 nM | CCCN(CCC)C(=O)C1=Cc2ccc(-c3ccc(S(C)(=N)=O)cc3)cc2N=C(N)C1 (stereo not shown) [Example 2, 2-Amino-8-[4-(methylsulfonimidoyl)phenyl]-N,N-dipropyl-3H-1-benzazepine-4-carboxamide]
6 | 8 nM | 2400 nM | CCCN(CCC)C(=O)C1=Cc2ccc(-c3cncc([S+](C)[O-])c3)cc2N=C(N)C1 (stereo not shown) [Example 4, 2-Amino-8-(5-methylsulfinyl-3-pyridyl)-N,N-dipropyl-3H-1-benzazepine-4-carboxamide]
7 | 28 nM | 14800 nM | CCCN(CCC)C(=O)C1=Cc2ccc(-c3cncc(S(C)(=N)=O)c3)cc2N=C(N)C1 (stereo not shown) [Example 6, 2-Amino-8-[5-(methylsulfonimidoyl)-3-pyridyl]-N,N-dipropyl-3H-1-benzazepine-4-carboxamide]
8 | 21 nM | 23000 nM | CCCN(CCC)C(=O)C1=Cc2ccc(-c3ccc([S+]([O-])CC)cc3)cc2N=C(N)C1 (stereo not shown) [Example 8, 2-Amino-8-(4-ethylsulfinylphenyl)-N,N-dipropyl-3H-1-benzazepine-4-carboxamide]
9 | 4 nM | 12100 nM | CCCN(CCC)C(=O)C1=Cc2ccc(-c3cccc([S+](C)[O-])c3)cc2N=C(N)C1 (stereo not shown) [Example 5, 2-Amino-8-(3-methylsulfinylphenyl)-N,N-dipropyl-3H-1-benzazepine-4-carboxamide]
10 | 26 nM | 19000 nM | CCCN(CCC)C(=O)C1=Cc2ccc(-c3ccc([S+](C)[O-])cc3)cc2N=C(N)C1 (stereo not shown) [Example 1, 2-Amino-8-(4-methylsulfinylphenyl)-N,N-dipropyl-3H-1-benzazepine-4-carboxamide]
11 | 15 nM | 39000 nM | CCCN(CCC)C(=O)C1=Cc2ccc(-c3cccc(S(=N)(=O)CC)c3)cc2N=C(N)C1 (stereo not shown) [Example 11, 2-Amino-8-[3-(ethylsulfonimidoyl)phenyl]-N,N-dipropyl-3H-1-benzazepine-4-carboxamide]
